Measurements as given in patent publication US8735140B2, “Preservation and composition of bioprocess algae for production of lipids, seedstock, and feed” (Kuehnle AgroSystems, Inc., priority 2008, dated 2014).

Legend:
Assay type in all cases: cell-based
Chlorella KAS503 = experiment: Trehalose preservation, storage by embedding in alginate mat
Procedure: (§1) Flask cultures (40 ml) of cells are grown to mid-log phase with a density between 3×10^6 and 3×10^7 cells/ml, and are centrifuged. Culture medium is removed after centrifugation, resulting in more concentrated algae cells. Cells are then re-suspended in fresh medium and left overnight. Cells are centrifuged again the next day in order to remove the medium, and are then re-suspended in fresh or salt water without any nutrient. The cell density of the suspension is determined prior to storage under the various treatments. Cells in 40 ml flask cultures are grown to mid-log phase with a density of between 3×10^6 and 3×10^7 cells/ml, and are centrifuged. Culture medium is removed after centrifugation, resulting in more concentrated algae cells. Cells are then re-suspended in ideal glass solution consisting of fresh culture medium and trehalose at a concentration of 0.1M, 0.3M, and 0.5M (dihydrate trehalose 100 from Hayashibara Co. Ltd, Okayama, Japan), respectively, and left overnight with mild agitation. Cells are centrifuged again to remove the ideal glass solution the next day, and are re-suspended in fresh or salt water without any nutrient. The cell density of the resulting suspension is determined prior to storage under the various treatments. (Some cells were also treated with a 0.5M sorbitol solution). In one specific embodiment, 2% (w/v) alginate solution (Sigma-Aldrich A-2033) and 3% CaCl2 solution (Sigma-Aldrich C1016) are prepared in salt water or fresh water medium as required by specific algae species, and autoclave sterilized. Then, 2.0 ml 2% alginate solution is pipetted into each well of a BD Falcon 12-well plate. 0.2 ml algae cell suspension is then pipetted into each well and the mixture is further stirred. The alginate-cell mixture is further sprayed with 3% CaCl2 solution in a sterile pump bottle, allowing the alginate to solidify. After solidification, plates are closed and placed under low light and at ambient temperature. After stored under the above preservation conditions for 5 months, algae cells can be rejuvenated by overlaying alginate/algae mixture with 3.0 ml sterile 5.0% NaPolyphosphate (Sigma Aldrich 305553) and allowing to the mixture sit overnight. The algae/alginate/NaPolyphosphate mixture is then removed from the 12-well plate, diluted with fresh medium (3 parts fresh medium to 1 part cell suspension) and placed under light. Cell viability is determined by comparing the cell growth in control set with the experimental set. Specifically, cell counts are performed on all samples. The averaged density value (in cells per ml) for all the cultures after treatment is defined as “rejuvenation cell count.” In some samples, the percent recovery of cells immediately after storage is also determined. The formulae are illustrated as follows: Growth=(rejuvenation cell count)/(initial cell count) Cell recovery after storage=(cell density after storage)/(initial cell density), with controls set at 100% cell recovery. Viability after storage and rejuvenation in nutrient medium=(Growth of treatment)/(Growth of control)×100%, with controls set at 100% viability

Chlorella KAS603 = experiment: as above
Procedure: as §1

Synechocystis KAS635 = experiment: as above; conditions: 0.3M trehalose in BG11 only
Procedure: as §1

Tetraselmis KAS633 [1] = experiment: as above
Procedure: as §1

Tetraselmis KAS633 [2] = experiment: Trehalose preservation, pretreatment with 0.5M sorbitol and embedding in alginate mat; conditions: for % viability after storage & rejuvenation / Cell recovery after storage, relative to control: 0M control = 100%; for Cell number after 21 weeks in storage & rejuvenation: 3 weeks rejuvenation; for Growth after storage & rejuvenation: 21 weeks + 3 weeks rejuvenation; for Cell recovery after storage, relative to control: 21 weeks
Procedure: Cells in 40 ml flask cultures are grown to mid-log phase with a density of between 3×10^6 and 3×10^7 cells/ml, and are centrifuged. Culture medium is removed after centrifugation, resulting in more concentrated algae cells. Cells are then re-suspended in ideal glass solution consisting of fresh culture medium and trehalose at a concentration of 0.1M, 0.3M, and 0.5M (dihydrate trehalose 100 from Hayashibara Co. Ltd, Okayama, Japan), respectively, and left overnight with mild agitation. Cells are centrifuged again to remove the ideal glass solution the next day, and are re-suspended in fresh or salt water without any nutrient. The cell density of the resulting suspension is determined prior to storage under the various treatments. (Some cells were also treated with a 0.5M sorbitol solution). In one specific embodiment, 2% (w/v) alginate solution (Sigma-Aldrich A-2033) and 3% CaCl2 solution (Sigma-Aldrich C1016) are prepared in salt water or fresh water medium as required by specific algae species, and autoclave sterilized. Then, 2.0 ml 2% alginate solution is pipetted into each well of a BD Falcon 12-well plate. 0.2 ml algae cell suspension is then pipetted into each well and the mixture is further stirred. The alginate-cell mixture is further sprayed with 3% CaCl2 solution in a sterile pump bottle, allowing the alginate to solidify. After solidification, plates are closed and placed under low light and at ambient temperature. After stored under the above preservation conditions for 5 months, algae cells can be rejuvenated by overlaying alginate/algae mixture with 3.0 ml sterile 5.0% NaPolyphosphate (Sigma Aldrich 305553) and allowing to the mixture sit overnight. The algae/alginate/NaPolyphosphate mixture is then removed from the 12-well plate, diluted with fresh medium (3 parts fresh medium to 1 part cell suspension) and placed under light. In one specific embodiment, cells are treated with trehalose solution at various concentrations and left overnight. Cells are centrifuged the next day to remove the trehalose solution, and then re-suspended in sterile 0.5M D-sorbitol (Fisher Scientific […]) dissolved in salt or fresh-water medium as required by specific algae species. Cells are left to stand for 2 hours with mild agitation. After 2 hours, cells are centrifuged again to remove the 0.5M sorbitol solution and re-suspended in fresh or salt-water medium. Cells are counted after the re-suspension. Cell viability is determined by comparing the cell growth in control set with the experimental set. Specifically, cell counts are performed on all samples. The averaged density value (in cells per ml) for all the cultures after treatment is defined as “rejuvenation cell count.” In some samples, the percent recovery of cells immediately after storage is also determined. The formulae are illustrated as follows: Growth=(rejuvenation cell count)/(initial cell count) Cell recovery after storage=(cell density after storage)/(initial cell density), with controls set at 100% cell recovery. Viability after storage and rejuvenation in nutrient medium=(Growth of treatment)/(Growth of control)×100%, with controls set at 100% viability

[3] = 0.3M trehalose in F/2, 21 weeks storage and 3 weeks rejuvenation
[4] = 0.3M trehalose in F/2, 21 weeks storage and 3 weeks rejuvenation in nutrient medium
[5] = 0.3M trehalose in F/2, 21 weeks storage in water (no nutrients)
[6] = 0.3M trehalose in F/2, 21 weeks storage, 0M control = 100%
[7] = 0.3M trehalose in F/2, 21 weeks storage, density after storage/initial density
[8] = 0.3M trehalose in F/2, 21 weeks storage and 3 weeks rejuvenation, 0M control = 100%
[9] = 0.1M trehalose in F/2, 0.5M sorbitol pretreatment
[10] = 0.3M trehalose in F/2, 0.5M sorbitol pretreatment
[11] = 0.5M trehalose in F/2, 0.5M sorbitol pretreatment

`OC[C@H]1O[C@H](O[C@H]2O[C@H](CO)[C@@H](O)[C@H](O)[C@H]2O)[C@H](O)[C@@H](O)[C@@H]1O` [trehalose, α-D-glycosyl-α-D-glycosylpyranoside] was tested, and the Growth (Chlorella KAS503; [3]) was 5.46, the “Cell number after storage & regrowth” value (Chlorella KAS503; [4]) was 1.012 × 10^8 cells/ml and the “Cell number after storage” value (Chlorella KAS503; [5]) was 1.860 × 10^7 cells/ml. The “Cell recovery after storage, relative to control” value (Chlorella KAS503; [6]) was “(84%)”, the “Cell recovery after storage” value (Chlorella KAS503; [7]) was 1.8 and the Growth (Chlorella KAS603; [3]) was 2.72. The “Cell number after storage & regrowth” value (Chlorella KAS603; [4]) was 4.480 × 10^7 cells/ml, the “% Viability” value (Chlorella KAS603; [8]) was “(149%)” and the “Cell number after storage” value (Chlorella KAS603; [5]) was 1.646 × 10^7 cells/ml. For the same compound, the “Cell recovery after storage, relative to control” value (Chlorella KAS603; [6]) was “(221%)”, the Growth (Synechocystis KAS635; 21 weeks storage and 3 weeks rejuvenation) was 4.72 and the “Cell number after storage & regrowth” value (Synechocystis KAS635; 21 weeks storage and 3 weeks rejuvenation in nutrient medium) was 4.620 × 10^7 cells/ml. For the same compound, the “% Viability” value (Synechocystis KAS635; 21 weeks storage and 3 weeks rejuvenation, 0M control = 100%) was 129%, the “Cell number after storage” value (Synechocystis KAS635; 21 weeks storage in water (no nutrients)) was 9.798 × 10^6 cells/ml and the “Cell recovery after storage, relative to control” value (Synechocystis KAS635; 21 weeks storage, 0M control = 100%) was “(180%)”. The “Cell recovery after storage” value (Synechocystis KAS635; 21 weeks storage, density after storage/initial density) was 0.29, the Growth (Tetraselmis KAS633 [1]; [3]) was 4.63 and the “Cell number after storage & regrowth” value (Tetraselmis KAS633 [1]; [4]) was 1.375 × 10^7 cells/ml. The “% Viability” value (Tetraselmis KAS633 [1]; [8]) was “(102%)”, the “Cell number after storage” value (Tetraselmis KAS633 [1]; [5]) was 2.97 × 10^6 cells/ml and the “Cell recovery after storage, relative to control” value (Tetraselmis KAS633 [1]; [6]) was “(142%)”. The “Cell recovery after storage” value (Tetraselmis KAS633 [1]; [7]) was 2.22, the “Cell number after 21 weeks in storage” value (Tetraselmis KAS633 [2]; [9]) was 2.831 × 10^6 and the “% viability after storage & rejuvenation” value (Tetraselmis KAS633 [2]; [9]) was “(104%)”. The “Cell number after 21 weeks in storage & rejuvenation” value (Tetraselmis KAS633 [2]; [9]) was 1.163 × 10^7 cells/ml, the “Growth after storage & rejuvenation” value (Tetraselmis KAS633 [2]; [9]) was 4.1 and the “Cell recovery after storage, relative to control” value (Tetraselmis KAS633 [2]; [9]) was “(78%)”. The “Cell number after 21 weeks in storage” value (Tetraselmis KAS633 [2]; [10]) was 2.276 × 10^6, the “% viability after storage & rejuvenation” value (Tetraselmis KAS633 [2]; [10]) was “(158%)” and the “Cell number after 21 weeks in storage & rejuvenation” value (Tetraselmis KAS633 [2]; [10]) was 1.420 × 10^7 cells/ml. The “Growth after storage & rejuvenation” value (Tetraselmis KAS633 [2]; [10]) was 6.23, the “Cell recovery after storage, relative to control” value (Tetraselmis KAS633 [2]; [10]) was “(80%)” and the “Cell number after 21 weeks in storage” value (Tetraselmis KAS633 [2]; [11]) was 1.899 × 10^6. For the same compound, the “% viability after storage & rejuvenation” value (Tetraselmis KAS633 [2]; [11]) was 186%, the “Cell number after 21 weeks in storage & rejuvenation” value (Tetraselmis KAS633 [2]; [11]) was 1.399 × 10^7 cells/ml and the “Growth after storage & rejuvenation” value (Tetraselmis KAS633 [2]; [11]) was 7.34. The “Cell recovery after storage, relative to control” value (Tetraselmis KAS633 [2]; [11]) was “(58%)”.
